Series [1] relates to V. cholerae O395. Nature of the series: microbe, parasite or virus in culture. The class given is cell-based. To be noted: for effect on growth of V. cholerae: 50 μM, midlogarithmic phase (8 h), LB medium; for MIC50: 8 h.
The subject of series [2] is NADH dehydrogenases of V. cholerae membranes. The class given is biochemical. To be noted: 50 μM, 200 μM NADH.
Series [3] concerns NDH-2. It is filed as biochemical. The following applies: 50 μM.
For the next series, the system named is terminal oxidases. The class given is biochemical. The following applies: 50 μM inhibitor, 50 μM UQ-1.
The next series relates to V. cholerae wildtype. On the set-up: species or system mice. The following applies: mouse, in vivo.
The target of another series is V. cholerae NQR complex (Vibrio cholerae serotype O1, UniProt Q9KPS2+Q9X4Q6). Description: biochemical. The following applies: read-out: inhibition of the ubiquinone reductase activity.
For series [4] the following is noted: human.
The test system of series [5] is wildtype V. cholerae membranes. The class given is biochemical. The following applies: 50 μM.
The conditions of series [6]: single oral dose 25 mg/kg, M. tuberculosis infection model ref 31; cited from earlier work.
For a further series, the system named is V. cholerae 2012EL-2176. Nature of the series: microbe, parasite or virus in culture. The class given is cell-based. To be noted: Vibrio cholerae.
Another series concerns cholera toxin. Nature of the series: microbe, parasite or virus in culture. The class given is cell-based, Vibrio cholerae.
The subject of series [7] is V. cholerae O395. Nature of the series: In vitro infection of T84 human intestinal cells, CFU of adherent and planktonic bacteria. It is filed as cell-based. The following applies: Vibrio cholerae.
In series [8] the test system is NDH-2. The class given is biochemical. To be noted: 50 μM. This is another data set of the same source.
A further series deals with V. cholerae 2010EL-1786. Description: microbe, parasite or virus in culture. It is filed as cell-based. To be noted: Vibrio cholerae.
The conditions of series [9]: cited from earlier work.

In brackets after ≈: the same amount, converted by molar mass. Like-named read-outs stand apart in the source and are kept apart here.

As for `CSc1ccc2c(c1)N(CCC1CCCCN1C)c1ccccc1S2` (centres unmarked) [thioridazine], the “effect on growth of V. cholerae” value with V. cholerae O395 [1] is given as “strong inhibitory effects”. The compound also came in with an MIC50 against V. cholerae O395 [1] (Vibrio cholerae) of 27 ± 2 µM (≈ 10 µg/mL). Further, the “inhibition of respiratory activity with NADH” value in series [2] is reported as “strong inhibitors”. In the series on NDH-2 [3], the “inhibition of NDH-2 activity in membranes” value is listed as “insensitive”. Further, the “respiratory activity with ubiquinol-1” value with terminal oxidases is “not sensitive”.
As for `CC1(C)S[C@@H]2[C@H](NC(=O)[C@H](N)c3ccccc3)C(=O)N2[C@H]1C(=O)O` [ampicillin], in the series with V. cholerae wildtype, the “survival of infected mice” value is on record as “almost twice”.
Regarding `OCCN1CCN(CCCN2c3ccccc3Sc3ccc(Cl)cc32)CC1` [perphenazine], at V. cholerae NQR complex (50 μM), the inhibition at 50 µM fell in the range of 20 to 40%.
On the same count and under the same terms, to `CC(CN1c2ccccc2Sc2ccccc21)N(C)C` (centres unmarked) [promethazine] belongs 20 to 40%.
Consider `CN1CCN(CCCN2c3ccccc3Sc3ccc(Cl)cc32)CC1` [prochlorperazine], for which, in the series on V. cholerae O395 [1], the “effect on growth of V. cholerae” value is on record as “strong inhibitory effects”. The same compound gave an MIC50 with V. cholerae O395 [1] (Vibrio cholerae) of 24 ± 3 µM (≈ 8.97 µg/mL).
For `CN(C)CCCN1c2ccccc2Sc2ccc(Cl)cc21` [chlorpromazine], the “effect on growth of V. cholerae” value with V. cholerae O395 [1] is on record as “antimicrobial properties”. Besides, the inhibition at 50 µM on V. cholerae NQR complex lay within 20 to 40%.
On to `CC(C)/N=c1\cc2n(-c3ccc(Cl)cc3)c3ccccc3nc-2cc1Nc1ccc(Cl)cc1` [clofazimine], for which the “effect on growth of V. cholerae” value in the series on V. cholerae O395 [1] is “strong inhibitory effects”. The MIC came out at 5 µM (≈ 2.37 µg/mL) against V. cholerae O395 [1] (Vibrio cholerae), 16 µM (≈ 7.57 µg/mL) with V. cholerae 2012EL-2176 and 16 µM (≈ 7.57 µg/mL) against V. cholerae 2010EL-1786. For the same compound, the MIC50 against V. cholerae O395 [1] (Vibrio cholerae) came out at 3.4 ± 0.2 µM (≈ 1.61 µg/mL). In addition, in the series with V. cholerae wildtype, the “survival of infected mice” value is recorded as “to the same extent as ampicillin”. The “estimated concentration that can reach the proximal section of the small intestine” value in [4] is reported as “around 150 μM”. For the same compound, on V. cholerae NQR complex, the inhibition at 50 µM was found to be 95%. In addition, the “sensitivity of activity of wildtype membranes” value in series [5] is given as “sensitive”. For the same compound, the peak serum concentration in series [6] was 0.43 µg/mL. Moreover, the “inhibition of respiratory activity with NADH” value in [2] is “strong inhibitors”. Also, in the series on cholera toxin (30 µM), the “inhibition of cholera toxin production” value is on record as 92%. In addition, the inhibition at 30 µM in the series with cholera toxin (Vibrio cholerae, read-out: inhibition of cholera toxin production) was 95%; in the series on V. cholerae O395 [7] (O395, T84, read-out: inhibition of the number of attached cells) it was above 75%; in the series with V. cholerae O395 [7] (O395, T84, read-out: inhibition of the number of planktonic cells) it was above 90%. The “inhibition of NDH-2 activity in membranes” value in the series with NDH-2 [3] is “insensitive”. Moreover, the “respiratory activity with ubiquinol-1” value in the series on terminal oxidases was “not sensitive”. For the same compound, the “sensitivity of NADH-dependent ubiquinol reductase activity of Δnqr membranes” value in the series on NDH-2 [8] is reported as “insensitive”. The concentration in plasma result in series [9] is “submicromolar range”.
Take `CN1CCN(CCCN2c3ccccc3Sc3ccc(C(F)(F)F)cc32)CC1` [trifluoperazine]: on V. cholerae NQR complex (50 μM), the inhibition at 50 µM is 20 to 40%.

Source of the values: publication PMC12336824 (The Journal of Biological Chemistry, 2025).
